Laboratory results taken from ChEMBL document CHEMBL1817622, “Synthesis, structure-activity relationship and biological evaluation of novel N-substituted matrinic acid derivatives as host heat-stress cognate 70 (Hsc70) down-regulators” (2011).
Active and inactive are the calls of the source. The calls are words filed in the database; no cut-off is given here.

Assays:
[1] = system: HepG2 2.2.15; assay: Inhibition of Hsc70 mRNA expression in human HepG2(2.2.15) cells at 100 ug/ml after 24 hrs by RT-PCR analysis; type: functional; details: HepG2 2.2.15, 24 h
[2] = system: Hepatitis B virus; assay: Antiviral activity against Hepatitis B virus infected in human HepG2(2.2.15) cells assessed as inhibition of intracellular HBV DNA replication at 100 ug/mL for 24 hrs by RT-PCR analysis; type: functional; set-up: scale not given: the % may be the effect or the level left
[3] = Down regulation of Hsc70 protein level in human HepG2(2.2.15) cells after 24 hrs by RT-PCR analysis; type: functional, cell-based
[4] = Down regulation of Hsc70 protein level in human HepG2(2.2.15) cells at 500 ug/mL for 24 hrs by RT-PCR analysis; type: functional, cell-based
[5] = Down regulation of Hsc70 protein level in human HepG2(2.2.15) cells at 100 ug/mL for 24 hrs by RT-PCR analysis; type: functional, cell-based
[6] = system: HepG2 2.2.15; assay: Ratio of […] to compound inhibition of mRNA expression in human HepG2(2.2.15) cells infected with Hepatitis B virus; type: functional

SMILES	inhibition at 100 µg/mL [1]	also measured
C[N+]1(C)C[C@@H]2CCCN3CCC[C@@H]([C@H]23)[C@H]1CCCC(=O)O	14.1%	–
O=C(O)CCC[C@@H]1[C@H]2CCCN3CCC[C@@H](CN1C(=O)/C=C/c1ccccc1)[C@@H]23	< 10%	–
O=C1CCC[C@@H]2[C@H]3CCCN4CCC[C@@H](CN12)[C@@H]34 [MATRINE]	52.4%	–
C[N+]1(C)C[C@@H]2CCC[N+]3([O-])CCC[C@@H]([C@H]23)[C@H]1CCCC(=O)O (some centres not stated)	< 10%	–
OCCCC[C@H]1NC[C@@H]2CCCN3CCC[C@H]1[C@H]23 [MATRINOL]	39.3%	–
O=C(O)CCC[C@@H]1[C@H]2CCCN3CCC[C@@H](CN1C(=O)CCl)[C@@H]23	< 10%	–
OCCCC[C@@H]1[C@H]2CCCN3CCC[C@@H](CN1Cc1ccccc1)[C@@H]23	25.5%	–
Cc1ccc(S(=O)(=O)N2C[C@@H]3CCCN4CCC[C@@H]([C@H]34)[C@H]2CCCC(=O)O)cc1	39.8%	–
CCN1C[C@@H]2CCCN3CCC[C@@H]([C@H]23)[C@H]1CCCC(=O)O	< 10%	–
O=C(O)CCC[C@@H]1[C@H]2CCC[N+]3([O-])CCC[C@@H](CN1Cc1ccccc1)[C@@H]23 (some centres not stated)	58.2%	–
O=C1CCC[C@@H]2[C@H]3CCC[N+]4([O-])CCC[C@@H](CN12)[C@@H]34 (some centres not stated) [OXYMATRINE]	52%	Activity [2]: 56%; Activity [3]: Dose-dependent effect
O=C(O)CCC[C@H]1NC[C@@H]2CCC[N+]3([O-])CCC[C@H]1[C@H]23 (some centres not stated) [OXYMATRINIC ACID]	45.5%	–
CCCN1C[C@@H]2CCCN3CCC[C@@H]([C@H]23)[C@H]1CCCC(=O)O	< 10%	–
Cc1cccc(OC(C)C(=O)N2C[C@@H]3CCCN4CCC[C@@H]([C@H]34)[C@H]2CCCC(=O)O)c1 (some centres not stated)	< 10%	–
O=C(O)CCC[C@@H]1[C@H]2CCCN3CCC[C@@H](CN1CC1CC1)[C@@H]23	< 10%	–
O=C(O)CCC[C@@H]1[C@H]2CCCN3CCC[C@@H](CN1Cc1ccccc1)[C@@H]23	55.9%	–
CC(=O)N1C[C@@H]2CCCN3CCC[C@@H]([C@H]23)[C@H]1CCCC(=O)O	29.8%	–
O=C(O)CCC[C@@H]1[C@H]2CCCN3CCC[C@@H](CN1C(=O)CO)[C@@H]23	< 10%	–
COc1ccc(CN2C[C@@H]3CCCN4CCC[C@@H]([C@H]34)[C@H]2CCCCO)cc1	12.2%	–
[O-][N+]12CCC[C@H]3CN[C@H](CCCCO)[C@@H](CCC1)[C@H]32 (some centres not stated) [OXYMATRINOL]	< 10%	–
O=C(O)CCC[C@@H]1[C@H]2CCCN3CCC[C@@H](CN1S(=O)(=O)c1ccccc1)[C@@H]23	22.1%	–
O=C(O)CCC[C@H]1NC[C@@H]2CCCN3CCC[C@H]1[C@H]23 [MATRINIC ACID]	46.2%	–
COc1ccc(CN2C[C@@H]3CCCN4CCC[C@@H]([C@H]34)[C@H]2CCCC(=O)O)cc1	72.1%	Activity [2]: 77%; Activity [4]: Active; Activity [5]: Active; fold change (FC) [6]: 1.3; Activity [3]: Dose-dependent effect
COc1cccc(CN2C[C@@H]3CCCN4CCC[C@@H]([C@H]34)[C@H]2CCCC(=O)O)c1	55.6%	–
O=C(O)CCC[C@@H]1[C@H]2CCCN3CCC[C@@H](CN1C(=O)c1ccccc1)[C@@H]23	33.6%	–
COc1ccc(CN2C[C@@H]3CCC[N+]4([O-])CCC[C@@H]([C@H]34)[C@H]2CCCC(=O)O)cc1 (some centres not stated)	69.7%	–
O=C(O)CCC[C@@H]1[C@H]2CCC[N+]3([O-])CCC[C@@H](CN1CC1CC1)[C@@H]23 (some centres not stated)	< 10%	–
O=CN1C[C@@H]2CCCN3CCC[C@@H]([C@H]23)[C@H]1CCCC(=O)O	< 10%	–
O=C(O)CCC[C@@H]1[C@H]2CCCN3CCC[C@@H](CN1CCO)[C@@H]23	53.7%	–
Cc1cccc(OCC(=O)N2C[C@@H]3CCCN4CCC[C@@H]([C@H]34)[C@H]2CCCC(=O)O)c1	< 10%	–
